{
  "source": "patent US20240293435A1",
  "about": "“Methods and Compositions for Treating Human Disorders Using D-Cycloserine and a Psychedelic Agent” (William & Mary, priority 2023, published 2024)",
  "origin": "cited, not measured here",
  "key": {"[1]": {"tested_on": "Mycobacterium tuberculosis strains", "conditions": "typical Mycobacterium tuberculosis strains"}},
  "data": [
    {"smiles": "N[C@@H]1CON=C1O", "note": "[DCS, 3-Isoxazolidinone, 4-amino-, (4R)-(9CI)]", "values": [
      {"measurement": "serum concentrations generally maintained", "setting": "dose of 500 mg/day, chronic treatment", "result": "25000 to 30000", "unit": "ng/mL"},
      {"measurement": "half-life", "setting": "oral capsules", "result": 10, "unit": "h"},
      {"measurement": "time to peak serum concentrations after dosing", "setting": "oral capsules", "result": "3 to 8", "unit": "h"},
      {"measurement": "benefit on Alzheimer's Disease", "setting": "Alzheimer's Disease; daily administration of 100 mg (Tsai et al. 1999)", "result": "positive benefit"},
      {"measurement": "benefit for treatment of Alzheimer's Disease", "setting": "Alzheimer's Disease; up to 50 mg daily dosing, multi-center 410-patient trial (Fakouhi et al. 1995)", "result": "did not have a significant benefit"},
      {"measurement": "minimum inhibitory concentrations (MIC) in vitro", "setting": "[1]", "result": "6 to 25", "unit": "µg/mL"}
    ]}
  ]
}
